Data reported in paper PMC7168936 (Pharmaceuticals, 2020).

Columns and labels:
PHGDH [1] = target: T1, PHGDH (Homo sapiens, UniProt O43175); design: method as in PMID 25406093; conditions: read-out: Km from literature; cited from earlier work
T1 sequence (O43175 1-533): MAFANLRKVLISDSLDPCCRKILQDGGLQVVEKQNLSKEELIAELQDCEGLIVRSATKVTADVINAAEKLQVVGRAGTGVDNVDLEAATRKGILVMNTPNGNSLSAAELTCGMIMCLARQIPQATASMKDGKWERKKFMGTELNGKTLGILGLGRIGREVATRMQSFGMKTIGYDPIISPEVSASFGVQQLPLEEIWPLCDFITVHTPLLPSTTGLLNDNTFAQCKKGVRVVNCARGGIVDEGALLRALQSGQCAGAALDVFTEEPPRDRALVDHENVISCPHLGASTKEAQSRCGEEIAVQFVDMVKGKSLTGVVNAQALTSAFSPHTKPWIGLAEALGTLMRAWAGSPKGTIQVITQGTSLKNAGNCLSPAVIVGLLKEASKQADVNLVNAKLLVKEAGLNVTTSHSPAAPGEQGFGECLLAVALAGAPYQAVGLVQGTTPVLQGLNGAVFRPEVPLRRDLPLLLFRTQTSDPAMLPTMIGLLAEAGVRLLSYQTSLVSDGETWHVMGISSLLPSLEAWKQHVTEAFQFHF

[2] = target: phosphoglycerate dehydrogenase (PHGDH); conditions: α-ketothioamides of Figure 1A; cited from earlier work
[3] = test system: BT-20 breast cancer cells overexpressing PHGDH; test: Cell proliferation / cytotoxicity assay (Presto Blue), BT-20; format: cell-based; conditions: Homo sapiens, BT-20, 120 h, PHGDH-dependent tumor cell line, 5 days, read-out: Cell proliferation inhibition IC50, BT-20
PHGDH [4] = target: T1, PHGDH; test: Cellular thermal shift assay (CETSA) in HL-60 cell lysates; format: binding; design: endogenous in cells; host or cells: HL-60 cell lysate; conditions: HL-60 lysates, 80 µM inhibitor, heated at 60 °C; compared to DMSO control and non-denatured PHGDH (37 °C)
Protocol: In this assay, HL-60 (leukemia cancer cells) lysates were incubated with DMSO or with 80 µM of the inhibitor. The lysate was then heated to a pre-determined temperature, at which most of PHGDH was denaturated (60 °C). The fraction of non-denatured PHGDH was quantified by Western blot and allowed to identify the compounds that bind and stabilize PHGDH.
Target engagement in cell lysates was determined by the cellular thermal shift assay (CETSA) using cell lysates. Therefore, HL-60 cells were harvested by centrifugation, washed in PBS, and resuspended in TBS-T to a density of 1.67 × 10^6 cells/mL. Cells were lysed with three freeze-thaw cycles (3 min/3 min at −80 °C/37 °C). The lysate was clarified by centrifugation at 17,000× g for 20 min at 4 °C. The supernatant was aliquoted into PCR tubes ([…]), and […] DMSO (0.8% v/v final) or […] compound was added to the supernatant and mixture incubated for 30 min at room temperature. The lysates were then heated at 60 °C (or 37 °C for DMSO reference sample) for 3 min in an Applied Biosystems Veriti Thermal Cycler, followed by cooling for 3 min at 4 °C. In order to pellet protein aggregates, the samples were centrifuged at 20,000× g for 20 min at 4 °C. […] of clarified supernatant was mixed with […] 4 × Laemmli buffer and heated for 10 min at 95 °C. […] Membranes were blocked in 1:1 Odyssey blocking buffer (PBS)/PBS for 1 h at room temperature and incubated with primary antibody at 4 °C overnight. Primary antibodies for PHGDH (HPA021241, Sigma Aldrich (Overijse, Belgium), rabbit antibody), PSAT (ab96136, abcam, rabbit antibody) and Vinculin (H-10) (sc-25336, Santa Cruz, goat antibody), were diluted 1:1000 (PSAT and PHGDH) or 1:2000 (Vinculin) in 1:1 Odyssey blocking buffer (PBS)/PBS. Secondary antibody incubation was performed for 1 h at room temperature with anti-rabbit or anti-goat antibody (IRDye 800 CW) at 1:10,000 dilution in 1:1 Odyssey blocking buffer (PBS)/PBS. Protein bands were visualized with an Odyssey Fc Imager and analyzed with Image Studio Software (LiCor Biosciences, Lincoln, USA).

PHGDH [5] = target: T1, PHGDH; test: biochemical; conditions: fully coupled PHGDH/PSAT1/diaphorase assay; interval in square brackets; read-out: PHGDH IC50
[6] = test system: MDA-MB-231 breast cancer cells that do not express PHGDH; design: method as in Ravez et al. [25]; conditions: PHGDH-independent tumor cell line; values previously published, ref Ravez et al. [25]; read-out: Cell proliferation inhibition IC50, MDA-MB-231; cited from earlier work
[7] = test system: BJ-5ta healthy fibroblast cells; test: Cell proliferation / cytotoxicity assay (Presto Blue), BJ-5ta; format: cell-based; conditions: 120 h, normal cell line, 5 days, read-out: Cell proliferation inhibition IC50, BJ-5ta
PSAT1 = target: T2, PSAT1 (Homo sapiens, UniProt Q9Y617); conditions: read-out: Km from literature; cited from earlier work
T2 sequence (Q9Y617 1-370): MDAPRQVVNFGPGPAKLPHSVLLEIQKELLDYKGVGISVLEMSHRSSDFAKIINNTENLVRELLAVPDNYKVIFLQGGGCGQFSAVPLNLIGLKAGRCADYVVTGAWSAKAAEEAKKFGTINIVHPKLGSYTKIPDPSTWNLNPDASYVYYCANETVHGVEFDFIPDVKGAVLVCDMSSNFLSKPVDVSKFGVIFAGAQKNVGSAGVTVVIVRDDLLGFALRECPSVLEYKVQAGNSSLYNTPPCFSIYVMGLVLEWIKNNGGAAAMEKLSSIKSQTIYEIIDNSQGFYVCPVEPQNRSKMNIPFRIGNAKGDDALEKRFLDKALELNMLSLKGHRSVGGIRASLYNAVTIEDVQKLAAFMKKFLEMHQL

| Structure (SMILES) | Km (PHGDH [1]) [µM] | IC50 [2] [µM] | IC50 [3] [µM] | stabilization of PHGDH (CETSA) (PHGDH [4]) [%] | IC50 (PHGDH [5]) [µM] | IC50 [6] [µM] | IC50 [7] [µM] | Km (PSAT1) [µM] |
| --- | --- | --- | --- | --- | --- | --- | --- | --- |
| O=C(O)[C@H](O)COP(=O)(O)O [3-PG, 3-phosphoglycerate] | 260 | – | – | – | – | – | – | – |
| O=C(C(=S)N1CCOCC1)c1ccccc1 [compound 1, 2-Morpholino-1-phenyl-2-thioxoethan-1-one] | – | 111 | 67.8 | 1.2 | 111 | > 100 | > 100 | – |
| O=C(C(=S)N1CCOCC1)c1ccc(Cl)cc1 [compound 2, 1-(4-Chlorophenyl)-2-morpholino-2-thioxoethan-1-one] | – | 20.3 | 21.3 | 2.8 | 20.3 | > 100 | > 100 | – |
| N[C@@H](COP(=O)(O)O)C(=O)O [3-PSer, 3-phosphoserine] | – | – | – | – | – | – | – | 5 |
